From ChEMBL document CHEMBL5465560, “Selectivity Literature for EUbOPEN Chemogenomic Library” (2024)
Each block holds one compound with its values, some of them ahead of it.

Assays:
[1] = molecular target: Insulin-like growth factor 1 receptor (Homo sapiens, UniProt P08069); assay: Selectivity interaction (KinomeScan (DiscoverX)) EUB0000655a IGF1R; conditions: at 10 µM
[2] = molecular target: Receptor tyrosine-protein kinase erbB-2 (Homo sapiens, UniProt P04626); assay: Selectivity interaction (KinomeScan (DiscoverX)) EUB0000607a ERBB2; conditions: at 10 µM
[3] = molecular target: T1, cGMP-dependent protein kinase 2 (Homo sapiens) (UniProt Q13237); assay: Selectivity interaction (KinomeScan (DiscoverX)) EUB0000607a PRKG2; conditions: at 10 µM
T1 sequence (whole entry): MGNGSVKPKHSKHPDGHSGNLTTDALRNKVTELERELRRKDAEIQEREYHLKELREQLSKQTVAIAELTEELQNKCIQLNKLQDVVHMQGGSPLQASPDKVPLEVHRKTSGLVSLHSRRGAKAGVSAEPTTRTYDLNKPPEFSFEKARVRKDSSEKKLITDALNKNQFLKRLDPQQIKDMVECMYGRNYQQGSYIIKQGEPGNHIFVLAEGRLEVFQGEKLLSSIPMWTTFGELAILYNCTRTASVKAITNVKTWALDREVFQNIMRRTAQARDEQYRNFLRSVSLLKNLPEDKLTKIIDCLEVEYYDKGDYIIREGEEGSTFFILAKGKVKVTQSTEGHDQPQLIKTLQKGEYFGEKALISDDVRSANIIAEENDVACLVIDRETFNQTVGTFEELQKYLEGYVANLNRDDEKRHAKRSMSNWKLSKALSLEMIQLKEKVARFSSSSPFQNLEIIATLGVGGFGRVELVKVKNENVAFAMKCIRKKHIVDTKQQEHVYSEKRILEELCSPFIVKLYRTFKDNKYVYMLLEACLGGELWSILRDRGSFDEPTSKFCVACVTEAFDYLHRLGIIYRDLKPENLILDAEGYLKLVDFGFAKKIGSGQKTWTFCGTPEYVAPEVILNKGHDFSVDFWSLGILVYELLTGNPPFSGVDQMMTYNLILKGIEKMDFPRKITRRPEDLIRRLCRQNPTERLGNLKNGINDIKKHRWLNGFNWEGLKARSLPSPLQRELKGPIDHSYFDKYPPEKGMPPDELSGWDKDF

[4] = molecular target: Serine/threonine-protein kinase MRCK gamma (Homo sapiens) (UniProt Q6DT37); assay: Selectivity interaction (KinomeScan (DiscoverX)) EUB0001619a CDC42BPG; conditions: at 1 µM
[5] = molecular target: TRAF2 and NCK-interacting protein kinase (Homo sapiens) (UniProt Q9UKE5); assay: Selectivity interaction (KinomeScan (DiscoverX)) EUB0001619a TNIK; conditions: at 1 µM
[6] = molecular target: Wee1-like protein kinase (Homo sapiens) (UniProt P30291); assay: Selectivity interaction (KinomeScan (DiscoverX)) EUB0000045b WEE1
[7] = tested on: Epidermal growth factor receptor (Homo sapiens), P00533 [L858R]; conditions: at 10 µM
[8] = molecular target: Serine/threonine-protein kinase MRCK alpha (Homo sapiens) (UniProt Q5VT25); conditions: at 10 µM
[9] = molecular target: Calcium/calmodulin-dependent protein kinase kinase 2 (Homo sapiens) (UniProt Q96RR4); assay: Selectivity interaction (Kinase panel (KiNativ target engagement assay in Jurkat cells)) EUB0001635a CAMKK2; format: cell-based; conditions: Selectivity number of off-targets 0.0, Selectivity number of targets 233.0, Source Knowledge https://www.sciencedirect.com/science/article/pii/S2451945619300674?via%3Dihub, at 1 µM
[10] = molecular target: Tyrosine-protein kinase ABL1 (Homo sapiens, UniProt P00519); assay: Selectivity interaction (ActivX KiNativ screen (kinase selectivity in THP-1 cell lysates)) EUB0000639a ABL1; format: subcellular; conditions: lysate
[11] = molecular target: T2, Ephrin type-A receptor 3 (Homo sapiens) (UniProt P29320); assay: Selectivity interaction (ProQinase) EUB0000171b EPHA3
T2 sequence (whole entry): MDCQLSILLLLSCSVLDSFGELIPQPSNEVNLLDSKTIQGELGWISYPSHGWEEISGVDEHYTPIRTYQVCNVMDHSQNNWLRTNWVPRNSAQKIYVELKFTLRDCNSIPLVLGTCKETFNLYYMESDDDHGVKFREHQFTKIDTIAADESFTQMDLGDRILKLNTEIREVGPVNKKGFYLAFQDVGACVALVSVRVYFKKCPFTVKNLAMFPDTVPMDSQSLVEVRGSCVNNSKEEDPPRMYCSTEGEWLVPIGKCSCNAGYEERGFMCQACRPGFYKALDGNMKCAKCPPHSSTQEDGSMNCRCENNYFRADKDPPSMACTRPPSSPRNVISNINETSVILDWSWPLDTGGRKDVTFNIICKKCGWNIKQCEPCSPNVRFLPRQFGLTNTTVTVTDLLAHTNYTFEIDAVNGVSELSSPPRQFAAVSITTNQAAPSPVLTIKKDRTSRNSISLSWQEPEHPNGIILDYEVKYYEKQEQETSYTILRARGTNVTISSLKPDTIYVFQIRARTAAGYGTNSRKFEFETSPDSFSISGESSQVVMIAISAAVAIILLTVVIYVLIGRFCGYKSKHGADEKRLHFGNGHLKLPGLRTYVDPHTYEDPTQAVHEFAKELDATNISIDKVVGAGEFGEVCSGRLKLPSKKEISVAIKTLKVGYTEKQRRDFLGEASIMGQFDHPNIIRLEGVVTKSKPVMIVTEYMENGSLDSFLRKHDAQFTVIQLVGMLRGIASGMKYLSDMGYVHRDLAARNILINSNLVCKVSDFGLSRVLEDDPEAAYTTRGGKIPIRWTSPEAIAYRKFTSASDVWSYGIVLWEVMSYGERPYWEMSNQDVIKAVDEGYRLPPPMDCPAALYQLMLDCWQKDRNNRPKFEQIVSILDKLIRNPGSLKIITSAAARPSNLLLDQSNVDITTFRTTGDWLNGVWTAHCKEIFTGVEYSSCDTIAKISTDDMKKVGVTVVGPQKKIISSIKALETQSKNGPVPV

[12] = molecular target: Serine/threonine-protein kinase PLK3 (Homo sapiens, UniProt Q9H4B4); assay: Selectivity interaction (KinomeScan (DiscoverX)) EUB0000666a PLK3; conditions: at 10 µM
[13] = molecular target: STE20-like serine/threonine-protein kinase (Homo sapiens, UniProt Q9H2G2); assay: Selectivity interaction (KinomeScan (DiscoverX)) EUB0000666a SLK; conditions: at 10 µM

Sequence of Tyrosine-protein kinase ABL1 (P00519 whole entry): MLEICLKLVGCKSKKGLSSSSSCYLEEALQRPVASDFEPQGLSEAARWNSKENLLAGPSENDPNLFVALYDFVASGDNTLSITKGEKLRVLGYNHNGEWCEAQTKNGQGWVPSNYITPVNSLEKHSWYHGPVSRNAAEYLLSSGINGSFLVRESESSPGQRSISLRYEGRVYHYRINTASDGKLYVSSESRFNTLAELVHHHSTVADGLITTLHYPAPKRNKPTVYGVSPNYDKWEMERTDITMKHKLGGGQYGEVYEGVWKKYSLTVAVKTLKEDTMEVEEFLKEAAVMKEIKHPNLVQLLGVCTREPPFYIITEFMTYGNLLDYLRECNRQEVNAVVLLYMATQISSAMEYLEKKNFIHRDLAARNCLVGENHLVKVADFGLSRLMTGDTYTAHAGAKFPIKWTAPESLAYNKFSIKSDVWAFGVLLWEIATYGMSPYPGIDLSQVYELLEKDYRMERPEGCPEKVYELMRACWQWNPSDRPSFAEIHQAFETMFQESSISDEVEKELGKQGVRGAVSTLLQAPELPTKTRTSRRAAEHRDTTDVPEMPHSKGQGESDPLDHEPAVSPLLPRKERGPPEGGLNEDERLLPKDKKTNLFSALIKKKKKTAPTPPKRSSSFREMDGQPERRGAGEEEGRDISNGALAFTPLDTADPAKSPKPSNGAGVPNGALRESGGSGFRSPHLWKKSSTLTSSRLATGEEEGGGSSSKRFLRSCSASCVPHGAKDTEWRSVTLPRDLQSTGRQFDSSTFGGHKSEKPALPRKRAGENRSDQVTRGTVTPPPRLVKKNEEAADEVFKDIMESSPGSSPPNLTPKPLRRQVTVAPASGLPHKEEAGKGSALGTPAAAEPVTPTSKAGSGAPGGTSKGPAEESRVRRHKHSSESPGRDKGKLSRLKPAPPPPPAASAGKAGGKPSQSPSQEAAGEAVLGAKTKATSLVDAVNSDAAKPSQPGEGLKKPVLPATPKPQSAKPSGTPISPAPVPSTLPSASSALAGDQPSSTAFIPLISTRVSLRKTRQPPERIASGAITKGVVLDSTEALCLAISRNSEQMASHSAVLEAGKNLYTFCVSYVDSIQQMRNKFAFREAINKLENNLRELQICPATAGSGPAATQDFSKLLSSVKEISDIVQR
Sequence of Wee1-like protein kinase (Homo sapiens) (P30291 whole entry, looked up): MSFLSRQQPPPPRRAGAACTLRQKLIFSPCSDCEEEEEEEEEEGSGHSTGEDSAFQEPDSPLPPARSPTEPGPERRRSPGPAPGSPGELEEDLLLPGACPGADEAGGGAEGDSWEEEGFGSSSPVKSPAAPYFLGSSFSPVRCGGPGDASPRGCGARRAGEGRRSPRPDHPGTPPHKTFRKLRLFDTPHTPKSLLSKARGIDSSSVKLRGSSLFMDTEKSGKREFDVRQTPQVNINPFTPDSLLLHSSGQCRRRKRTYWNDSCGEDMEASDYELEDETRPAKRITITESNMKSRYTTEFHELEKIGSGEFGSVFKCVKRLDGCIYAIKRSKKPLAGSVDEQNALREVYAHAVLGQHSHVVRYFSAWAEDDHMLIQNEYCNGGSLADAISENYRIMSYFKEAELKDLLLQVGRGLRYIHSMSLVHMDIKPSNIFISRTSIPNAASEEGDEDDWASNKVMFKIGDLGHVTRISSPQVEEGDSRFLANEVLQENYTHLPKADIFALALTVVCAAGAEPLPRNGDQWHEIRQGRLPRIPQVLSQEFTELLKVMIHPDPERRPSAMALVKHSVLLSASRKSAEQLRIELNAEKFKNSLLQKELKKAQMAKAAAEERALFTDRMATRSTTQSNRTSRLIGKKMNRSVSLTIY
Sequence of Serine/threonine-protein kinase MRCK gamma (Homo sapiens) (Q6DT37 whole entry): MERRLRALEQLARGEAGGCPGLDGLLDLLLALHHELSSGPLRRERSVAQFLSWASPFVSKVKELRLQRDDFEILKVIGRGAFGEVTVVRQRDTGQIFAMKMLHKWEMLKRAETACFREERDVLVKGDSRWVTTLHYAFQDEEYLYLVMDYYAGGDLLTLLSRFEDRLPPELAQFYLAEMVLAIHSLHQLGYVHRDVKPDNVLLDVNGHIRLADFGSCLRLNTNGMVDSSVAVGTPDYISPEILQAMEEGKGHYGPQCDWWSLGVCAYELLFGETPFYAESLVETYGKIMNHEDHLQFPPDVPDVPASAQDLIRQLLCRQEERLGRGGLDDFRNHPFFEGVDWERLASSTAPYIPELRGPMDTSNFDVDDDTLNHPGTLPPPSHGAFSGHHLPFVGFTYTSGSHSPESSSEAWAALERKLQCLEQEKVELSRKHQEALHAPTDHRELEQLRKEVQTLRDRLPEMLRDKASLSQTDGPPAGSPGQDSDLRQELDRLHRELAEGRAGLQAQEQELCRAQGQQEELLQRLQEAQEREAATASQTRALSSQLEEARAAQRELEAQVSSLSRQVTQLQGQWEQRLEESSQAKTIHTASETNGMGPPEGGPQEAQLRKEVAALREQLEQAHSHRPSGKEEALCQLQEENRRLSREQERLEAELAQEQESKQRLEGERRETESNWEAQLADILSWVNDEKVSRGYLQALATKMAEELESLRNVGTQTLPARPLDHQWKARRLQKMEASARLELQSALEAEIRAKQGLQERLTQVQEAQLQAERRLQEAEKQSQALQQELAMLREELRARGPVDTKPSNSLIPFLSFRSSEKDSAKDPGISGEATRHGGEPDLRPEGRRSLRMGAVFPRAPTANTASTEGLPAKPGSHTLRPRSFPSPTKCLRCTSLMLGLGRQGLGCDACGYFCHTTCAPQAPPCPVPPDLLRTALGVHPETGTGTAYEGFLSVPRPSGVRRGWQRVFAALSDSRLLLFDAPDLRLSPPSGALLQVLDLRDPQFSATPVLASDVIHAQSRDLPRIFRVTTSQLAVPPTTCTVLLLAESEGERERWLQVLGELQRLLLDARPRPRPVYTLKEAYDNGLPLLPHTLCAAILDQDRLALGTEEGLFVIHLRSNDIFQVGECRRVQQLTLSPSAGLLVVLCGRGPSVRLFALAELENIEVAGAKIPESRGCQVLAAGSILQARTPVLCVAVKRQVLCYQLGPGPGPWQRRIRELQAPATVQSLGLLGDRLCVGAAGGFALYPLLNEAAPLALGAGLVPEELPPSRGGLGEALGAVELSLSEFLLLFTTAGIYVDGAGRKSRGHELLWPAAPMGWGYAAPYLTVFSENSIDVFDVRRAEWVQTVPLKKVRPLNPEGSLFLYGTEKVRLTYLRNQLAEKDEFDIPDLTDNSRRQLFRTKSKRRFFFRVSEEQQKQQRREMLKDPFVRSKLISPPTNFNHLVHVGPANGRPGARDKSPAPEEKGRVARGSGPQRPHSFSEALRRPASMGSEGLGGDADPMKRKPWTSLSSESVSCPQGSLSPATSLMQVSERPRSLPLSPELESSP
Sequence of Serine/threonine-protein kinase MRCK alpha (Homo sapiens) (Q5VT25 whole entry): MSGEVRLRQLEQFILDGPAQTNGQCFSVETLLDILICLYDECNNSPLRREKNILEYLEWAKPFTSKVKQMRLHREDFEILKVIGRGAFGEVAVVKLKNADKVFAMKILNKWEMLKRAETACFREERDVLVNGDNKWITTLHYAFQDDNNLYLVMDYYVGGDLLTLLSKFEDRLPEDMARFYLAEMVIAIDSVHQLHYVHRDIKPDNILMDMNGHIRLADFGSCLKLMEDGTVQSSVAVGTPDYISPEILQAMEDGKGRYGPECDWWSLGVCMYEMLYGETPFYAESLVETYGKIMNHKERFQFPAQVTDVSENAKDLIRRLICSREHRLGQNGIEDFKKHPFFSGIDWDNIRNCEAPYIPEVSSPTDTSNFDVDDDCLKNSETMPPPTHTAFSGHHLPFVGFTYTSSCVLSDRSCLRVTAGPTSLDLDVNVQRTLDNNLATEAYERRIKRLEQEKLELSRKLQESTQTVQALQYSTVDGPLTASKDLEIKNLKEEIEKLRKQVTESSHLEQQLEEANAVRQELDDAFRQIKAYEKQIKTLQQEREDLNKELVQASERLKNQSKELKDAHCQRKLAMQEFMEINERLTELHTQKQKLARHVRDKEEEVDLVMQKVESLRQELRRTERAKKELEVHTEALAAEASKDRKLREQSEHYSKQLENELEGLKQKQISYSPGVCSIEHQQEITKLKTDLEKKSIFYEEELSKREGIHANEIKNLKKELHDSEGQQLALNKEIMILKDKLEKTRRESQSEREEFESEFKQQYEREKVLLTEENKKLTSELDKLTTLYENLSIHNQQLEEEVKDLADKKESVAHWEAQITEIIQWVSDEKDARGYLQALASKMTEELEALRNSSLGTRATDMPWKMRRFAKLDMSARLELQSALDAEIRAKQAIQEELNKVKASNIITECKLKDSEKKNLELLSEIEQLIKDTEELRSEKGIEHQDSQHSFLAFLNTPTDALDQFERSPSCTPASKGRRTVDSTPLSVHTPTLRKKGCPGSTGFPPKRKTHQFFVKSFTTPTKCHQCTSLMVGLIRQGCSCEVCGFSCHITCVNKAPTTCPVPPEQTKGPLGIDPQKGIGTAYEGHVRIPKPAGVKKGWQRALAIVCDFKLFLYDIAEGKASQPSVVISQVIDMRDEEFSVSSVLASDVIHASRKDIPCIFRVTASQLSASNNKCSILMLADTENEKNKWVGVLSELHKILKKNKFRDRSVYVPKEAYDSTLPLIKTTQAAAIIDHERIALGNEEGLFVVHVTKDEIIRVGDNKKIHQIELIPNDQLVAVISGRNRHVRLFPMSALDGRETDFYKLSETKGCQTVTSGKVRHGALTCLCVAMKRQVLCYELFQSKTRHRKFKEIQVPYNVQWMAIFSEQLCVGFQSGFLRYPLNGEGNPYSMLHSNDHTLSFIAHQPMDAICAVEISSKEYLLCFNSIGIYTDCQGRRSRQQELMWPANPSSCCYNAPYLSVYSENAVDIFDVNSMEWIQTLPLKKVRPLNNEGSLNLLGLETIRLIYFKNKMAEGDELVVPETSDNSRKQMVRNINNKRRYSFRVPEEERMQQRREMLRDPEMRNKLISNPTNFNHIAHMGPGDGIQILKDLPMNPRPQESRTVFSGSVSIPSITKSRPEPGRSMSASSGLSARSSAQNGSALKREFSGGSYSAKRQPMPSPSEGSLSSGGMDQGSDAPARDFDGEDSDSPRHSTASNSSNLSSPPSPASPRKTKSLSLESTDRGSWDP

Structure (SMILES): CN(C)CCOc1ccc(-c2nc(-c3ccncc3)c(-c3ccc4c(c3)CC/C4=N\O)[nH]2)cc1
% of control [1]: 100%

Structure (SMILES): CNC(=O)Nc1ccc(-c2nc(N3CC4CCC(C3)O4)c3cnn(C4CCC5(CC4)OCCO5)c3n2)cc1
% of control [2]: 88%
% of control [3]: 88%

Structure (SMILES): N#Cc1cccc(-c2c[nH]c3ncnc(N4CCOCC4)c23)c1
% of control [4]: 100%
% of control [5]: 45%

Structure (SMILES): C=CC(=O)Nc1cc(-n2c(=O)ccc3cnc4ccc(-c5ccc(NS(C)(=O)=O)cc5)cc4c32)ccc1C
% of control ([6]; at 1 µM): 100%
% of control ([6]; at 10 µM): 92%

Structure (SMILES): COCC(=O)NC/C=C/c1ccc2ncnc(Nc3ccc(Oc4ccc(C)nc4)c(C)c3)c2c1 [CP-724714]
% of control [7]: 0.6%
% of control [8]: 100%

Structure (SMILES): C=CC(=O)Nc1ccc(C(=O)Nc2[nH]nc3c2CN(C(=O)N[C@H](CN(C)C)c2ccccc2)C3(C)C)cc1
% of engagement [9]: -3.1%

% of inhibition ([10]; at 0.01 µM): 12.8%
% of inhibition ([10]; at 0.04 µM): -16%
% of inhibition ([10]; at 0.2 µM): -25.4%
% of inhibition ([10]; at 1 µM): -5.3%
% of inhibition ([10]; at 5 µM): -19.6%
Structure (SMILES): CC[C@@H]1[C@H](F)C(=O)N[C@@H]1COc1nccc2cc(C(N)=O)c(OC)cc12 [ZIMLOVISERTIB]

% of control ([11]; at 1 µM): 98%
% of control ([11]; at 5 µM): 89%
Structure (SMILES): C=CC(=O)Nc1cccc(C(=O)Nc2ccc(Nc3cc(-c4[nH]c(SC)nc4C)ccn3)cc2)c1

Structure (SMILES): O=C(NOC[C@H](O)CO)c1ccc(F)c(F)c1Nc1ccc(I)cc1F
% of control [12]: 100%
% of control [13]: 93%
